Source: a melting point compilation (Tetko et al.; mined from patent text by program, amines drawn as free bases though some values may be those of a salt)

With `C=CCNC(=O)N1CCc2cc(S(=O)(=O)N3CC(c4ccccc4)NC3=O)ccc21` (stereo not given) the melting point was 217 to 219 °C.
Compound `COc1ccc(-c2cc(F)cc3c2NC(CN)CO3)c(C)c1` (stereo not given) has a melting point of 82 °C.
Compound `CC(=O)c1cc(C)c(NC(=O)c2cc(C(F)(F)F)nn2-c2ncccc2Cl)c(C(=O)NC(C)C)c1` has a melting point of 135 to 137 °C.
With `CC(C)n1nc(-c2c(-c3ccccc3)nn3ccc(OCC(=O)NCCN(C)C)cc23)ccc1=O` the melting point was 117 to 119 °C.
`CC(=O)c1c(C)oc(C)c1C(C)=O` showed a melting point of 75 to 77 °C.
`CCOC(=O)c1ccc(NCCOc2ccccc2)cc1` gave a melting point of 126 to 129 °C.
In the case of `Cc1nc(NC(=O)c2ccccc2)cn1CCCCC1(C(=O)NCC(F)(F)F)c2ccccc2-c2ccccc21`, the melting point is reported as 145 to 147 °C.
Work on `N#Cc1cccc2c1[nH]c1ccccc12` yielded a melting point of 200 to 201 °C.
For `CC(C)(C)c1cc(C(c2ccc(C(F)(F)F)cc2)N2CCCCC2)c(O)c(C(C)(C)C)c1` (stereo not given), the melting point was 150 to 152 °C.
In the case of `COC(=O)c1scc(-c2ccccc2)c1-c1ccc(SC)c(F)c1`, the melting point is reported as 141 °C.
`N#Cc1ccc(N2C(=O)NC(=Cc3ccccc3O)C2=O)c2ccccc12` gave a melting point of 146 to 149 °C.
For `O=C(CCl)N1CC=C(c2cccc(C(F)(F)F)c2)n2ncc(Br)c21`, the melting point was 128 to 130 °C.
`CC(=O)NC(C#N)NC(=O)c1cc(C)cc(C)c1` (stereo not given) showed a melting point of 195 to 197 °C.
`CCCN(CCN1CCN(c2cccc(Cl)c2Cl)CC1)C1CCc2ncsc2C1` (stereo not given) gave a melting point of 104 °C.
In the case of `Cc1oc(-c2ccccc2)nc1COc1ccc(C(=O)c2ccc(O)cc2OCC(=O)O)cc1`, the melting point is reported as 229 to 230 °C.
For `Cc1ccc(-c2cc3cc(C(=O)Nc4ccc(CN(C)C5CCOCC5)cc4)ccc3o2)cc1`, the melting point was 233 to 236 °C.
Work on `CC(COc1ccc2c(c1)C(=O)NC(C)(C)O2)NCc1ccccc1` (stereo not given) yielded a melting point of 127 to 129 °C.
For `COC(=O)c1ccc(N2CCCC2CO)cc1N` (stereo not given), the melting point was 113 to 115 °C.
With `O=C(OCc1ccccc1)c1cc(-c2ccc(-c3ccc(C(F)(F)F)cc3)o2)ccc1OCc1ccccc1` the melting point was 97 to 98 °C.
In the case of `COc1cc(OC)nc(NC(=O)NS(=O)(=O)c2ccccc2CCBr)n1`, the melting point is reported as 163 to 166 °C.
Compound `Fc1cccc(F)c1-c1ncc(NCc2ccc(Cl)cc2)nn1` has a melting point of 200 to 205 °C.
With `O=C1CNc2ncc(-c3cccnc3)cc2N1Cc1ccccc1` the melting point was 58 °C.
For `Cc1ccc(S(=O)(=O)NC(=O)C(C)c2ccc3cc(OCc4ccc5ccccc5n4)ccc3c2)cc1` (stereo not given), the melting point was 201 to 205 °C.
`FCCn1ncnc1COc1nn2c(-c3ccccc3F)nncc2c1-c1ccccc1F` gave a melting point of 172 to 173 °C.
With `OC1=C(c2ccccc2)CC(O)(Cl)C=C1` (stereo not given) the melting point was 110 to 111 °C.
For `O=CC1Cc2cc(C(=O)c3cccs3)c(Cl)c(Cl)c2O1` (stereo not given), the melting point was 162 to 164 °C.
`C(#Cc1cccc(-c2cnccn2)c1)c1ccncc1` showed a melting point of 94 to 95 °C.
For `CCc1ccc2c(c1)C=Cc1ccccc1C2c1cn(Cc2ccc(C(=O)O)o2)c(=O)[nH]c1=O` (stereo not given), the melting point was 178 to 180 °C.
With `CC1(C)C=C(c2ccccn2)c2ccc(C#N)cc2OC1` the melting point was 132 °C.
For `Cc1cc(C)c(Nc2nc(Nc3ccc(C#N)cc3)nc(Cl)c2Br)c(C)c1`, the melting point was 220 to 221 °C.
For `Cc1ncc([N+](=O)[O-])n1CCN(CCCC(C)N(CCn1c([N+](=O)[O-])cnc1C)CCn1c([N+](=O)[O-])cnc1C)CCn1c([N+](=O)[O-])cnc1C` (stereo not given), the melting point was 150 to 151 °C.
`CCOc1cccc(-c2cc3n(n2)-c2ccccc2CC3)c1` showed a melting point of 99 to 100 °C.
For `CN1CCCC1CCNC(=O)Cn1c(-c2ccc(Cl)cc2)nc2cccnc21` (stereo not given), the melting point was 170 to 172 °C.
Compound `CCOC(=O)C=Cc1ccc(CCNS(=O)(=O)C=Cc2ccccc2)cc1` has a melting point of 102 to 104 °C.
With `Cn1ncnc1COc1nn2c(-c3ccoc3)nncc2c1-c1ccccc1F` the melting point was 148 °C.
Work on `CC[C@H](C)[C@H](NC(=O)O[C@@H](CC(C)C)C(=O)O)C(=O)NC(C)C` yielded a melting point of 179 to 180 °C.
With `CCCNc1sc(C(N)=O)c2c1-c1c(cnn1C)CC2` the melting point was 207 to 208 °C.
In the case of `N#Cc1cc(-c2ccc(Cl)c(Cl)c2)[nH]c1Cl`, the melting point is reported as > 200 °C.
With `S=C(S)CCc1ccccc1` the melting point was 57 to 59 °C.
For `CCc1cccc(C)c1CNc1nc(Br)cnc1N`, the melting point was 155 °C.
In the case of `O=C1Nc2ccccc2C12COc1cc3c(cc12)OCCO3` (stereo not given), the melting point is reported as > 250 °C.
In the case of `C1CCc2c(c(N3CCCC3)nn3nnnc23)C1`, the melting point is reported as 272 to 273 °C.
`CCCCC(=O)C(Cc1ccc(C#N)cc1)c1ccccc1` (stereo not given) gave a melting point of 70 °C.
With `O=C(Nc1n[nH]c(=S)s1)NC(Cc1ccccc1)C(=O)NCCN1CCOCC1` (stereo not given) the melting point was 165 to 167 °C.
Compound `CCCc1c2nc(C(=O)OC)cc(N)c2cc2c(=O)cc(C(=O)OCC)oc12` has a melting point of 267 to 270 °C.
For `Cc1ccc(S(=O)(=O)OCC2Cc3ccccc3C2)cc1`, the melting point was 95 to 97 °C.
Compound `COc1cc(OC)c2c(=O)[nH]c(-c3ccc(OCC[N+]4([O-])CCCC4)c(-c4ccc(S(C)(=O)=O)cc4)n3)nc2c1` has a melting point of 167 to 170 °C.
For `CC(C)OC(=O)c1nc(Cl)c(Cl)[nH]1`, the melting point was 168 °C.
`O=C(O)c1ccc(-c2ccc3cc(OCc4ccc(F)cc4)c(C45CC6CC(CC(C6)C4)C5)cc3c2)cc1O` gave a melting point of 240 to 241 °C.
Work on `COc1ccc(NC(=O)N2C(=O)CC(c3ccc(OC)c(OC4CCCC4)c3)N2C)cc1` (stereo not given) yielded a melting point of 123 to 125 °C.
`C=CCCCCCCCCC(O)CC(=O)O` (stereo not given) showed a melting point of 62 to 64 °C.
`CNC(=O)c1cc(=NS(=O)(=O)c2ccccc2)c2c(Cl)cc(Cl)cc2[nH]1` gave a melting point of 196 to 197 °C.
`CCCN1CCN(c2cc3ccccc3c(=O)[nH]2)CC1` gave a melting point of 208 to 209 °C.
`O=C1C2CCCN2S(=O)(=O)N1CSc1nnnn1-c1ccccc1` (stereo not given) showed a melting point of 99.5 to 100 °C.
`Cc1ccc(C(=S)c2ccccc2C(=O)O)cc1` gave a melting point of 151 to 155 °C.
`CC1=C(CCO)c2cc(F)ccc2C1` gave a melting point of 65 to 66.5 °C.
`CN(C)c1ccc2nc3c4ccccc4c(=Nc4ccncc4)cc-3oc2c1` showed a melting point of 217 to 218 °C.
Work on `Cc1ccc(S(=O)(=O)OCCC2COc3ccccc3C2)cc1` (stereo not given) yielded a melting point of 91 to 93 °C.
`COc1ccc(S(=O)(=O)OCC(=O)CC(C)C2CCCCC2)cc1` (stereo not given) gave a melting point of 52 to 53 °C.
With `Clc1cccc(N2CCN(c3nc4cccccc-4n3)CC2)c1` the melting point was 217 to 219 °C.
`COc1ccc(C(=O)Nc2ccc(Cl)c(Cl)c2)cc1NCc1cccnc1` gave a melting point of 145 to 147 °C.
For `COC(=O)C1Oc2ccccc2Cc2cccc(Cl)c2O1` (stereo not given), the melting point was 107 to 108 °C.
For `COC(=O)c1sc(C(=O)OC)c(-c2ccoc2)c1O`, the melting point was 102 °C.
With `c1cc(-c2ccc3nncn3n2)cs1` the melting point was 189 to 192 °C.
In the case of `CCOC(=O)CCc1cc(OCOC)nn1Cc1ccc(Cl)cc1Cl`, the melting point is reported as 47 to 49 °C.
For `Cn1c(=O)c(C(=O)O)nc2cc(F)c([N+](=O)[O-])cc21`, the melting point was 173 to 175 °C.
`C=Cc1nc(C(=O)OC)c(Cl)c(N)c1F` showed a melting point of 68 to 71 °C.
Compound `CC(=O)OC1CSC(Oc2cc(C)c(-c3cccnc3)c(C)c2)C(OC(C)=O)C1OC(C)=O` (stereo not given) has a melting point of 75 to 80 °C.
`Cc1cc2ccc(Cl)c(Cl)c2[nH]1` gave a melting point of 70 to 71 °C.
`Cc1nnc([C@H](Nc2ccc(C#N)c(Cl)c2C)[C@H](C)O)o1` gave a melting point of 181 to 183 °C.
In the case of `COc1ccc(O[C@@H]2COc3ccc(-c4ccc5cc(F)ccc5n4)cc3[C@@H]2O)cc1` (relative stereo), the melting point is reported as 151 to 154 °C.
Compound `CC(Cn1cc(Sc2ccccc2)c2ccccc21)N(O)C(N)=O` (stereo not given) has a melting point of 73 to 76 °C.
For `CCCNc1ncnc2c1ncn2Cc1ccc(OC)c(OC)c1`, the melting point was 117 to 120 °C.
`O=[N+]([O-])c1ccc2oc(-c3ccc(CN4CCOCC4)s3)nc2c1` showed a melting point of 149 to 151 °C.
`CCCCCCCCCC(=O)c1ccc(Br)cc1F` gave a melting point of 31 to 32 °C.
In the case of `Clc1nc(Oc2ccccc2)nc(Oc2ccccc2)n1`, the melting point is reported as 119 to 121 °C.
Work on `CN(C)CCCN=Cc1ccc2ccccc2c1` yielded a melting point of 29 to 31 °C.
Compound `CCCCc1c(CNC(=O)OC(C)(C)C)c(CC(C)C)nc2ccc(O)cc12` has a melting point of 198 to 200 °C.
For `CN(C)C(=O)n1oc(CCl)cc1=O`, the melting point was 89 to 90 °C.
For `CNC1=Nc2ccsc2C(c2ccccc2)=NC1`, the melting point was 223 to 227 °C.
With `COC(=O)CCCOc1cc([N+](=O)[O-])c(CBr)cc1OC` the melting point was 68 to 70 °C.
Compound `O=C(O)c1ccccc1C(=O)NCCCn1ccnc1` has a melting point of 160 to 162 °C.
`CCCCOc1cc2c(nc(O)n2Cc2ccccc2)c(N)n1` gave a melting point of 205 to 208 °C.
For `N#Cc1ccc(N2C(=O)NC3(CCOCC3)C2=O)cc1C(F)(F)F`, the melting point was 192 to 193 °C.
`COC(=O)C12CCc3cc(Cl)ccc3C1=NN(C(=O)Nc1ccc(C(F)(F)F)cc1)C2` (stereo not given) showed a melting point of 234 to 236 °C.
Work on `Nc1nc(N)c(C=O)c(OCC2CCCCC2)n1` yielded a melting point of 159 to 160 °C.
For `O=c1c2ccc(Cl)cc2[nH]c2c(O)nn(C3CCCc4ccccc43)c(=O)c12` (racemic), the melting point was > 300 °C.
For `CC(C)(C)N(Cc1ccccc1)C(=O)C=c1sc2n(c1=O)Cc1ccccc1N=2`, the melting point was 195 to 197 °C.
Compound `Cc1c(C)c2c(c(C)c1O)CCC(C)(C(=O)N1CCC(Oc3ccc([N+](=O)[O-])cc3)C1)O2` (stereo not given) has a melting point of 176 to 178 °C.
Work on `c1cc(COc2cccc(-c3nnn[nH]3)c2)cc(OCc2ccc3ccccc3n2)c1` yielded a melting point of 169 to 172 °C.
Compound `O=C(NCc1ccc(Cl)cc1)c1cnc2cc(CCCO)ccc2c1O` has a melting point of 166 to 168 °C.
`CC(C)c1ccc(NC(=N)c2cccc(NC(=O)C=Cc3ccccc3Cl)c2)cc1` gave a melting point of 112 to 118 °C.
With `NCC1CN(c2cc3c(cc2F)c(=O)c(C(=O)O)cn3C2CC2)C1` the melting point was 205 to 211 °C.
Work on `O=C(O)c1ccc(Br)cc1COc1ccccc1` yielded a melting point of 160 to 163 °C.
With `CN1CCC(c2ccc(Cl)c(Cl)c2)C(CO)C1` (stereo not given) the melting point was 109 to 111 °C.
`CC(C)c1ccc2c(=O)c(S(C)=O)cn(C)c2c1` (stereo not given) gave a melting point of 214 to 215 °C.
Compound `Cc1c(C)c2ccc(OCCCN3CCC(N)CC3)cc2oc1=O` has a melting point of 92 to 94 °C.
Work on `Nc1cc(Oc2cc(Oc3cc(N)cc(C(F)(F)F)c3)cc(C(F)(F)F)c2)cc(C(F)(F)F)c1` yielded a melting point of 82 to 84 °C.
Compound `Cc1cccc2c1C(=O)N1CCC[C@H]1c1c(C(=O)OC(C)(C)C)ncn1-2` has a melting point of 192 to 194 °C.
Work on `CC(C)N1Cc2ccc(F)cc2N(CCN2CC=C(c3c[nH]c4cc(F)ccc34)CC2)S1(=O)=O` yielded a melting point of 101 to 103 °C.
